This passage reports AC50 results from PubChem BioAssay AID977630 (Broad Institute, 2014).

This assay has as its system E. coli wild-type GFP growth, mixed culture, 24 h. The assay is described as follows: growth inhibition of wild-type GFP E. coli, H38-humanized RFP comparator, dose response, H38 mutant RFP vs wild-type GFP, cherry-pick (AID 977630).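 Also: wild-type GFP strain mixed equally with humanized-ribosome H38 mutant expressing RFP.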
Setting [1] is: E. coli mixed culture total OD600 growth, 24 h.

Inconclusive results are not listed. Active and inactive are the calls of the source.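 The calls were made as follows: active = Normal-ribosome green reporter loss at least double humanized-ribosome red reporter loss, with overall culture growth inhibition under a set limit; inconclusive = no clear call, values can overlap the other calls; inactive = the rest.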

A word on the AC50: it is the midpoint of the concentration-response curve, whichever way the signal moves. Consider `Nc1ccccc1Nc1ccc([N+](=O)[O-])cc1[N+](=O)[O-]`, for which the AC50 was > 100 µM (inactive). On the same count and under the same terms, next, `Cc1cccc(Oc2ccc(NC(=O)c3ccccc3C(=O)O)cc2)c1`: > 100 µM (inactive); `Oc1c(Br)cc(Br)cc1Br`: > 100 µM (inactive). Take `CCOC(=O)c1ccc(NC(=O)c2ccc(OC(C)C)c(OC)c2)cc1`: under setting [1], the AC50 is > 100 µM. For `COC(=O)c1ccc2nc(-c3ccc(OC)c(OC)c3)c(Cc3ccc(C)cc3)n2c1`, the AC50 is > 100 µM (inactive). On the same count and under the same terms, next, `C=CCN(CC=C)C(=O)c1ccc2nc(Cc3ccc(OC)c(OC)c3)oc2c1`: > 100 µM (inactive). `O=C(O)CC(CC(=O)Nc1ccc(Oc2ccccc2)cc1)c1ccccc1` (stereo unspecified): the AC50 was > 100 µM (inactive). The AC50 under setting [1] was > 100 µM. For `CC(=O)N(CCC1(c2ccc(C)cc2)CCOC(C(C)C)C1)Cc1ccco1` (stereo unspecified), the AC50 was > 100 µM (inactive). For the compound `Cc1[nH]nc2c1C(c1ccc(F)cc1)N(Cc1ccccc1)C2=O` (stereo unspecified), the AC50 was > 100 µM (inactive). In addition, the AC50 under setting [1] is > 100 µM. Turning to `Cc1cc(CNC(=O)c2cc(-c3ccccc3)nc3ccccc23)nn1C`, the AC50 was > 100 µM (inactive). Consider `CCOC(=O)C1(CCCc2ccccc2)CCN(C(=O)CCn2cncn2)CC1`, for which the AC50 was > 100 µM (inactive).

As for `O=S1(=O)N[C@H](Cc2ccccc2)COc2cccc(N3CCC[C@H]3CO)c21`, the AC50 is > 100 µM (inactive). With `O=C(CCC1CCCN(C(=O)c2ccsc2)C1)N1CCN(c2ccccn2)CC1` (stereo unspecified), the AC50 is > 100 µM (inactive). For the compound `Cc1cccc(CN2C(=O)c3ccccc3Sc3ccc(C(=O)NCCN4CCOCC4)cc32)c1`, the AC50 under setting [1] is > 100 µM. For `S=c1nc(-c2cccc(Br)c2)[nH][nH]1`, the AC50 under setting [1] was > 100 µM. As to `COC(=O)c1sc(C(C)(C)C)cc1CS(=O)(=O)c1ccc(Cl)cc1`, the AC50 is > 100 µM (inactive). For the compound `Cc1ccc(-c2cc(-c3ccc(C)cc3)[n+](-c3ccc(C(=O)[O-])cc3)c(-c3ccc(C)cc3)c2)cc1`, the AC50 was > 100 µM (inactive). Take `Cc1nn(C(C)(C)C)c(OC(=O)CC(C)C)c1S(=O)(=O)c1ccccc1`: the AC50 was > 100 µM (inactive). For the compound `COC(=O)c1ccsc1NC(=O)c1cccc(OC)c1`, the AC50 under setting [1] was > 100 µM. Turning to `CCS(=O)(=O)N1CCN(c2ccnc3cc(Cl)ccc23)CC1`, the AC50 is > 100 µM (inactive). Also, the AC50 under setting [1] is > 100 µM. `O=C(Nc1cccc(Oc2ccc3c(c2)C(=O)NC3=O)c1)c1cccs1`: the AC50 is > 100 µM (inactive). As to `COc1ccc(NC(=O)CN(c2ccccc2OC)S(=O)(=O)c2cccs2)cc1Cl`, the AC50 is > 100 µM (inactive). Turning to `COC(=O)c1cc2c(c3c4cc(F)ccc4n(S(=O)(=O)c4ccccc4)c13)C(=O)N(Cc1ccco1)C2`, the AC50 is > 100 µM (inactive). On to `COc1cc(NC(=O)COC(=O)CC(C)(C)C)c(C)cc1[N+](=O)[O-]`, for which the AC50 is > 100 µM (inactive). Also, the concentration at half-maximal activity (AC50) under setting [1] is > 100 µM. Take `O=C(Nc1cccc(O)c1)c1cccc(S(=O)(=O)Nc2cccc(O)c2)c1`: the AC50 was > 100 µM (inactive). For the same compound, the AC50 under setting [1] is > 100 µM. For the compound `COc1ccccc1Cc1c(-c2ccc(F)cc2)nc2ccc(Br)cn12`, the AC50 was > 100 µM (inactive). Turning to `Cc1cccc(C(=O)NCC(=O)NCCSc2ccc(Br)cc2)c1`, the AC50 was > 100 µM (inactive). For the compound `O=C(Nc1ccc(C(=O)Nc2ccccc2Cl)cc1)c1cccnc1`, the AC50 was > 100 µM (inactive). For the compound `Cc1cccc(NC(=O)c2c(C)nn(-c3ccccc3)c2Cl)c1`, under setting [1], the AC50 was found to be 41.6 µM. In the case of `CSc1ncc(CN2CCCC(C(=O)c3cccc(Cl)c3)C2)cn1` (stereo unspecified), the AC50 is > 100 µM (inactive). Also, under setting [1], the AC50 is > 100 µM.

On to `COC(=O)c1c(NC(=O)CCC(=O)O)sc(Cc2ccccc2)c1C`, for which the AC50 was 3.63 µM.

For the compound `Cc1ccc(S(=O)(=O)NCc2c(-c3ccccc3)noc2C)cc1`, the AC50 was > 100 µM (inactive). With `CCN(CC)C(=O)c1ccc(COc2ccccc2Cl)o1`, the AC50 is > 100 µM (inactive). Also, the AC50 under setting [1] is > 100 µM.

As for `Cc1ccccc1Nc1c(-c2cccnc2)nc2ccc(Br)cn12`, under setting [1], the AC50 was > 100 µM.

`CC1CCCN(c2ccc(C(=O)NCCc3ccccc3)cn2)C1` (stereo unspecified): the AC50 was > 100 µM (inactive). Further, under setting [1], the half-maximal activity concentration (AC50) was > 100 µM.

On to `O=c1[nH]c(C2CCN(S(=O)(=O)c3ccc4c(c3)OCCO4)CC2)nc2c1nnn2Cc1ccccc1F`, for which the AC50 is > 100 µM (inactive). In addition, the AC50 under setting [1] was > 100 µM. `CN(CCOc1ccccc1)S(=O)(=O)c1ccccc1C#N`: the AC50 is > 100 µM (inactive). The same measure, in the same setting: to `O=c1c2cc(Br)ccc2[nH]c(=S)n1Cc1ccccc1` belongs > 100 µM (inactive); to `Cc1ccc(S(=O)(=O)N2CCOCC2)cc1NC(=O)COc1ccc(-c2nnco2)cc1`, > 100 µM (inactive). For `CN1OC[C@@H]2CN(C(=O)c3ccco3)[C@H](c3ccc(-c4ccc(C#N)cc4)cc3)C[C@@H]21`, under setting [1], the AC50 was > 100 µM. In the case of `CCN(CC)CCNC(=O)c1cc2cc3ccc(OC)cc3nc2o1`, the AC50 was > 100 µM (inactive). The same measure, in the same setting: to `CC(C)(C)CC(=O)NCCc1csc(-c2ccccc2)n1` belongs > 100 µM (inactive); to `CC(C)(C)N(Cc1ccccc1)C(=O)COC(=O)Cn1cnc2ccccc2c1=O`, > 100 µM (inactive). Still for that read-out and setting: to `O=C(Nc1ccc2nc(-c3cccnc3)[nH]c2c1)c1ccco1` belongs > 100 µM (inactive). Take `O=C(COC(=O)C1CC2C=CC1C2)Nc1ccc([N+](=O)[O-])cc1` (stereo unspecified): the AC50 is > 100 µM (inactive). Moreover, under setting [1], the concentration at half-maximal activity (AC50) was > 100 µM. For `COc1ccc(N(C)S(=O)(=O)c2cccc(C(=O)NC3CCCCC3C)c2)cc1` (stereo unspecified), the AC50 is > 100 µM (inactive). Same read-out and setting: next, `O=C(c1ccc(-n2cccn2)cc1)N1CCc2ccccc2C1`: > 100 µM (inactive). Take `CCOc1ccccc1NC(=O)c1cc(SC)ccc1Cl`: the AC50 is > 100 µM (inactive).

For the compound `C[C@]12CCC(=O)C[C@H]1CC[C@@H]1[C@@H]2CC[C@]2(C)C(=O)CC[C@@H]12`, the AC50 is > 100 µM (inactive). For `Nc1[nH]c(C(=O)c2ccccc2)c(-c2ccc(Cl)cc2)c1C(=O)NCCc1c[nH]c2ccccc12`, the AC50 was > 100 µM (inactive). For the same compound, the AC50 under setting [1] was > 100 µM. For `CC(C)(CC(=O)O)CC(=O)NCc1c(Cl)cccc1Sc1ccc(Cl)cc1`, the AC50 was > 100 µM (inactive). For the compound `O=C1OC[C@@H]2CCCN2C(=O)[C@@H](CC(=O)N(CCO)Cc2ccccc2)C/C=C\C[C@H]1Cc1ccc(F)cc1`, the AC50 is > 100 µM (inactive). With `CC(=O)OC(COc1cccc(C)c1)Cn1cnc2ccccc21` (stereo unspecified), the AC50 was > 100 µM (inactive). Under setting [1], the AC50 was > 100 µM. Turning to `O=C(CCNC(=O)c1ccco1)Nc1cccc(Br)c1`, the AC50 was > 100 µM (inactive).

As for `Cc1noc(C)c1COc1cccc(C(=O)N2CCc3ccccc32)c1`, the AC50 is > 100 µM (inactive). For the compound `CCOc1ccc2nc(NC(=O)CSc3nc(SC)ns3)sc2c1`, the AC50 is > 100 µM (inactive). Besides, under setting [1], the AC50 is > 100 µM. Turning to `Cc1ccc(-c2nc3ccc(NS(=O)(=O)c4ccccc4)cc3[nH]2)o1`, the AC50 was > 100 µM (inactive). The AC50 under setting [1] was determined as 33.6 µM.
